{"source": "paper PMC4099972", "about": "“Extracts from New Zealand Undaria pinnatifida Containing Fucoxanthin as Potential Functional Biomaterials against Cancer in Vitro” (Journal of Functional Biomaterials, 2014)", "key": {"mice": {"tested_on": "mice", "set-up": "method as in PMID 22072997", "details": "repeated dose of 500 and 1000 mg/kg for 30 day; cited from earlier work"}, "rats": {"tested_on": "rats", "set-up": "method as in doi:10.3136/nskkk.55.304", "details": "oral, 750 mg/kg for 28 days, purity 95%; cited from earlier work"}, "[1]": {"tested_on": "A549 cell line (lung carcinoma)", "assay": "MTT cell viability assay, A549", "format": "cell-based", "details": "Homo sapiens, extract concentrations normalized to fucoxanthin purity, read-out: IC50, growth inhibition", "method": "(§1) All cancer cell lines were maintained in tissue culture incubator at 37 °C and 5% carbon dioxide. Cell viability was determined by MTT assay as previously described with a slight modification. Briefly, the optimized seeding cell density was 5000 cells/well for A549 and WiDr, while for Hep G2, Malme-3M, SiHa, NCI-H522, Lovo, SK-N-SH, and MCF-7, the seeding cell density was 10,000 cells/well. Microplate with 96 wells was used for the experiment and each well contained 100 μL of medium with cancer cells. […] All cancer cell lines were cultured in the presence or absence of fucoxanthin extract or standard. […] An aliquot of 20 μL of MTT reagent in phosphate buffer saline at a concentration of 5 mg/mL was added into each well after experiment, and washed with 150 µL of PBS. After incubation for 4 h at 37 °C, the formed MTT-formazan was dissolved in 150 μL DMSO. The viable cell amount was determined by the absorbance at 540 nm using a multiplate-reader (UV-visible FLUOStar Omega Multidetection Microplate Reader, AlphaTech NZ Ltd., Auckland, New Zealand)."}, "[2]": {"tested_on": "human umbilical vein endothelial (HUVEC)", "assay": "MTT cell viability assay, non-cancer HUVEC", "format": "cell-based", "details": "extract concentrations normalized to fucoxanthin purity, read-out: IC50, growth inhibition (non-cancer cell line)", "method": "(§2) All three cell lines were purchased from Invitrogen NZ Ltd. HDFb was maintained in Dulbecco’s Modified Eagle Medium supplemented with LSGS. HUVEC cells were maintained in Cascade Biologics Medium 200 supplemented with LSGS. HEK293 cells were maintained in RPMI 1640 culture medium supplemented with 1% Penicillin-Streptomycin, 4 mM L-glutamine and 10% of FBS. Cell viability was determined by MTT assay as previously described with a slight modification. Briefly, the optimized seeding cell density was 5000 cells/well for A549 and WiDr, while for Hep G2, Malme-3M, SiHa, NCI-H522, Lovo, SK-N-SH, and MCF-7, the seeding cell density was 10,000 cells/well. Microplate with 96 wells was used for the experiment and each well contained 100 μL of medium with cancer cells. […] All cancer cell lines were cultured in the presence or absence of fucoxanthin extract or standard. […] An aliquot of 20 μL of MTT reagent in phosphate buffer saline at a concentration of 5 mg/mL was added into each well after experiment, and washed with 150 µL of PBS. After incubation for 4 h at 37 °C, the formed MTT-formazan was dissolved in 150 μL DMSO."}, "[3]": {"tested_on": "MCF-7 cell line (breast adenocarcinoma)", "assay": "MTT cell viability assay, MCF-7", "format": "cell-based", "details": "Homo sapiens, MCF7, extract concentrations normalized to fucoxanthin purity, read-out: IC50, growth inhibition", "method": "as §1"}, "[4]": {"tested_on": "all tested cancer cell lines (nine human cancer cell lines)", "assay": "MTT cell viability, all tested cancer cell lines", "format": "cell-based", "details": "72 h, read-out: cell viability compared with untreated cell cultures", "method": "All nine cancer cell lines were treated with pure fucoxanthin (Sigma) at concentrations of 1.5625, 6.25, 12.5, 25, 50, 80, 100 µM for 24, 48 and 72 h, respectively (Figure 3). There was significant difference between high and low concentrations and between 24, 48 and 72 h treatments (p < 0.05).\nHuman cancer cell lines used in this study were purchased from ATCC (Cryosite Ltd., Sydney, NSW, Australia), including lung carcinoma line A549, colon adenocarcinoma lines WiDr and Lovo, lung cancer line NCI-H522, hepatocellular carcinoma line Hep G2, neuroblastoma line SK-N-SH, breast adenocarcinoma line MCF, cervix squamous line SiHa, and malignant melanoma line Malme-3M. All nine cell lines were maintained in RPMI 1640 culture medium supplemented with 1% Penicillin-Streptomycin, 4 mM L-glutamine and 10% of FBS except Malme-3M (20% FBS). […]\nCell viability was determined by MTT assay as previously described with a slight modification. […]\nPure fucoxanthin standard and all U. pinnatifida fucoxanthin extracts were dissolved in pure ethanol to 5 mM as a stock solution, and the final ethanol concentration was 2% in the culture medium. […] The viable cell amount was determined by the absorbance at 540 nm using a multiplate-reader (UV-visible FLUOStar Omega Multidetection Microplate Reader, AlphaTech NZ Ltd., Auckland, New Zealand). […]"}, "[5]": {"details": "cited from earlier work"}, "[6]": {"tested_on": "SK-N-SH cell line (neuroblastoma)", "assay": "MTT cell viability assay, SK-N-SH", "format": "cell-based", "details": "Homo sapiens, extract concentrations normalized to fucoxanthin purity, read-out: IC50, growth inhibition", "method": "as §1"}, "[7]": {"tested_on": "Lovo cell line (colon adenocarcinoma)", "assay": "MTT cell viability assay, Lovo", "format": "cell-based", "details": "Homo sapiens, extract concentrations normalized to fucoxanthin purity, read-out: IC50, growth inhibition", "method": "as §1"}, "[8]": {"tested_on": "Hep G2 cell line (hepatocellular carcinoma)", "assay": "MTT cell viability assay, Hep G2", "format": "cell-based", "details": "Homo sapiens, HepG2, extract concentrations normalized to fucoxanthin purity, read-out: IC50, growth inhibition", "method": "as §1"}, "[9]": {"tested_on": "SiHa cell line (cervix squamous carcinoma)", "assay": "MTT cell viability assay, SiHa", "format": "cell-based, human", "details": "extract concentrations normalized to fucoxanthin purity, read-out: IC50, growth inhibition", "method": "as §1"}, "[10]": {"tested_on": "human dermal fibroblasts (HDFb)", "assay": "MTT cell viability assay, non-cancer HDFb", "format": "cell-based", "details": "Fibroblast, extract concentrations normalized to fucoxanthin purity, read-out: IC50, growth inhibition (non-cancer cell line)", "method": "as §2"}, "[11]": {"tested_on": "WiDr cell line (colon adenocarcinoma)", "assay": "MTT cell viability assay, WiDr", "format": "cell-based", "details": "Homo sapiens, extract concentrations normalized to fucoxanthin purity, read-out: IC50, growth inhibition", "method": "as §1"}, "[12]": {"tested_on": "human embryonic kidney (HEK293)", "assay": "MTT cell viability assay, non-cancer HEK293", "format": "cell-based", "details": "for IC50: Homo sapiens, extract concentrations normalized to fucoxanthin purity, read-out: IC50, growth inhibition (non-cancer cell line)", "method": "as §2"}, "mouse bone marrow cells": {"tested_on": "mouse bone marrow cells", "set-up": "method as in PMID 21720124, PMID 21720125", "details": "cited from earlier work"}, "[13]": {"tested_on": "Malme-3M cell line (malignant melanoma)", "assay": "MTT cell viability assay, Malme-3M", "format": "cell-based, human", "details": "for IC50: Homo sapiens, extract concentrations normalized to fucoxanthin purity, read-out: IC50, growth inhibition", "method": "as §1"}, "[14]": {"tested_on": "NCI-H522 cell line (lung cancer)", "assay": "MTT cell viability assay, NCI-H522", "format": "cell-based", "details": "Homo sapiens, extract concentrations normalized to fucoxanthin purity, read-out: IC50, growth inhibition", "method": "as §1"}, "human non-cancer cells": {"tested_on": "human non-cancer cells", "assay": "MTT cell viability, human non-cancer cells (control study)", "format": "cell-based", "details": "1.56 μM", "description": "Three human non-cancer cell lines including human dermal fibroblasts (HDFb), human umbilical vein endothelial (HUVEC) and human embryonic kidney (HEK293) were used to determine in vitro toxicity of pure fucoxanthin and extracts from NZ U. pinnatifida. All three cell lines were purchased from Invitrogen NZ Ltd. HDFb was maintained in Dulbecco’s Modified Eagle Medium supplemented with LSGS. HUVEC cells were maintained in Cascade Biologics Medium 200 supplemented with LSGS. HEK293 cells were maintained in RPMI 1640 culture medium supplemented with 1% Penicillin-Streptomycin, 4 mM L-glutamine and 10% of FBS.\nCell viability was determined by MTT assay as previously described [34] with a slight modification. […] Treatment time was 24, 48 or 72 h.\nPure fucoxanthin standard and all U. pinnatifida fucoxanthin extracts were dissolved in pure ethanol to 5 mM as a stock solution, and the final ethanol concentration was 2% in the culture medium. An aliquot of 20 μL of MTT reagent in phosphate buffer saline at a concentration of 5 mg/mL was added into each well after experiment, and washed with 150 µL of PBS. After incubation for 4 h at 37 °C, the formed MTT-formazan was dissolved in 150 μL DMSO. The viable cell amount was determined by the absorbance at 540 nm using a multiplate-reader (UV-visible FLUOStar Omega Multidetection Microplate Reader, AlphaTech NZ Ltd., Auckland, New Zealand). […]"}}, "note": "Where two headings read alike, the source gives them in different places."}
{"smiles": "CC(=O)O[C@H]1CC(C)(C)C(=C=C/C(C)=C/C=C/C(C)=C/C=C/C=C(C)/C=C/C=C(\\C)C(=O)C[C@@]23O[C@]2(C)C[C@@H](O)CC3(C)C)[C@](C)(O)C1", "note": "[Pure fucoxanthin, fucoxanthin]", "values": [{"measurement": "histological abnormality in tissues (liver, kidney, spleen, gonadal)", "setting": "mice", "value": "no abnormality was found"}, {"measurement": "toxicity at repeated doses", "setting": "rats", "value": "did not show obvious toxicity"}, {"measurement": "IC50", "setting": "[1]; A549, 48 h treatment", "value": "44.7 ± 2.26", "unit": "µM"}, {"measurement": "IC50", "setting": "[1]; A549, 72 h treatment", "value": "25.6 ± 1.07", "unit": "µM"}, {"measurement": "IC50", "setting": "[2]; 48 h treatment", "value": 3.98, "unit": "µM"}, {"measurement": "IC50", "setting": "[2]; 72 h treatment", "value": 3.36, "unit": "µM"}, {"measurement": "IC50", "setting": "[3]; MCF-7, 48 h treatment", "value": "44 ± 2.61", "unit": "µM"}, {"measurement": "IC50", "setting": "[3]; MCF-7, 72 h treatment", "value": "22.5 ± 1.26", "unit": "µM"}, {"measurement": "viability at 100 µM", "setting": "[4]", "value": "~20", "unit": "%"}, {"measurement": "50% lethal dose", "setting": "[5]", "value": "more than 2000 mg/kg body weight"}, {"measurement": "IC50", "setting": "[6]; 48 h treatment", "value": "52.7 ± 1.07", "unit": "µM"}, {"measurement": "IC50", "setting": "[6]; 72 h treatment", "value": "31.2 ± 2.62", "unit": "µM"}, {"measurement": "IC50", "setting": "[7]; 48 h treatment", "value": "39.6 ± 0.94", "unit": "µM"}, {"measurement": "IC50", "setting": "[7]; 72 h treatment", "value": "21.8 ± 1.17", "unit": "µM"}, {"measurement": "IC50", "setting": "[8]; Hep G2, 48 h treatment", "value": "58.9 ± 1.23", "unit": "µM"}, {"measurement": "IC50", "setting": "[8]; Hep G2, 72 h treatment", "value": "25.9 ± 1.69", "unit": "µM"}, {"measurement": "IC50", "setting": "[9]; 48 h treatment", "value": 37.8, "unit": "µM"}, {"measurement": "IC50", "setting": "[9]; Homo sapiens, 48 h, 48 h treatment", "value": "37.6 ± 1.49", "unit": "µM"}, {"measurement": "IC50", "setting": "[9]; Homo sapiens, 72 h, 72 h treatment", "value": "18.9 ± 2.16", "unit": "µM"}, {"measurement": "IC50", "setting": "[10]; 48 h treatment", "value": 32.2, "unit": "µM"}, {"measurement": "IC50", "setting": "[10]; 72 h treatment", "value": 15.7, "unit": "µM"}, {"measurement": "IC50", "setting": "[11]; 48 h treatment", "value": "42.3 ± 1.25", "unit": "µM"}, {"measurement": "IC50", "setting": "[11]; 72 h treatment", "value": "25 ± 1.63", "unit": "µM"}, {"measurement": "growth inhibition effect on cells", "setting": "[12]; HEK293, 6.25 μM, 24- and 48-h treatment", "value": "no growth inhibition effect"}, {"measurement": "IC50", "setting": "[12]; HEK293, 48 h treatment", "value": 18.7, "unit": "µM"}, {"measurement": "IC50", "setting": "[12]; HEK293, 72 h treatment", "value": 7.66, "unit": "µM"}, {"measurement": "genotoxic/mutagenic effects", "setting": "mouse bone marrow cells", "value": "not found"}, {"measurement": "IC50", "setting": "[13]; 48 h treatment", "value": "28 ± 1.36", "unit": "µM"}, {"measurement": "IC50", "setting": "[13]; 72 h treatment", "value": "17.3 ± 2.65", "unit": "µM"}, {"measurement": "concentration from which cell viability is significantly decreased", "setting": "[13]; within 24 h", "value": "≥ 50", "unit": "µM"}, {"measurement": "IC50", "setting": "[14]; NCI-H522, 48 h treatment", "value": "46.1 ± 1.07", "unit": "µM"}, {"measurement": "IC50", "setting": "[14]; NCI-H522, 72 h treatment", "value": "24.5 ± 1.58", "unit": "µM"}, {"measurement": "effect on growth of human non-cancer cells", "setting": "human non-cancer cells", "value": "promote the growth"}]}
